# Test results as given in patent US8809361B2, “2,3-dihydrofuro[2,3-c]pyridines, their use as modulators of the G-protein-coupled receptor GPR119 and pharmaceutical compositions thereof” (Boehringer Ingelheim International GmbH, priority 2012, dated 2014).
# Molecular target: T1, human GPR119 (Homo sapiens, UniProt Q8TDV5)
# T1 construct: expression vector for human GPR119 cDNA (Acc. No. NP_848566); expressed in transfected cells
# T1 sequence (Q8TDV5 1-335): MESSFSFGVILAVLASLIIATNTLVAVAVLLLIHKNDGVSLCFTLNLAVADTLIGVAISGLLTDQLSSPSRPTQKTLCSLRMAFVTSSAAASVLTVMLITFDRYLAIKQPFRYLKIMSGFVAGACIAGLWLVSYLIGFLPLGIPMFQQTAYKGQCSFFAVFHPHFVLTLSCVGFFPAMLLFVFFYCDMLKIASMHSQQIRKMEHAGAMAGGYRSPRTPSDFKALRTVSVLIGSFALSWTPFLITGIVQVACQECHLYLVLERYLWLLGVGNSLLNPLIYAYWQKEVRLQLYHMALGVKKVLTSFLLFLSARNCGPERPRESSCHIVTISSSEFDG
# Test: GPR119 activation / intracellular cAMP stimulation, AlphaScreen cAMP Assay in Min-6/hGPR119 cells
# Format: cell-based
# Details: MIN6 cells stably transfected with human GPR119, 45 minutes incubation at room temperature
# Experimental: The compounds of formula I according to the invention modulate the activity of the G-protein-coupled receptor GPR119. The effect of the compounds on the activation of GPR119 and on the stimulation of intracellular cAMP concentration is determined using the AlphaScreen cAMP Assay Kit (Cat. No. #6760625R) made by PerkinElmer.
# MIN6 cells [Miyazaki J et al., Endocrinology. 1990 July; 127(1):126-32] are stably transfected with an expression vector for human GPR119 cDNA (Acc. No. NP_848566). Min-6/hGPR119 cells are cultured in DMEM, 10% FBS, 50 μM β-mercaptoethanol, 0.3 mg/mL Geniticin, 2 mM GlutaMAX at 37° C., 5% CO2. For the assay, the cells are seeded in Optiplates (white, 384-well, 160W-barcoded, TC, sterile with lid, Cat. No. #6007688 (Perkin Elmer); 10000 cells/well; 50 μL). The plates covered with lids are then incubated for 24 hours at 37° C., 5% CO2. After the medium is aspirated from the wells completely, 10 ill of the test compound are added, the compounds are diluted using stimulating buffer (140 mM NaCl, 3.6 mM KCl, 0.5 mM NaH2PO4, 0.5 mM MgSO4, 1.5 mM CaCl2, 10 mM Hepes, 5 mM NaHCO3; pH 7.4. 0.5 mM IBMX and 0.1% BSA, the final DMSO concentration is 1%). After 45 minutes incubation at room temperature (approx. 20° C.), the cAMP concentrations are determined using the AlphaScreen cAMP Assay Kit (Cat. No. #6760625R from PerkinElmer).
row,EC50,SMILES
1,16 nM,"CC(C)OC(=O)N1CCC2(CC1)CC1(Cc3cc(C4=CCN(S(C)(=O)=O)CC4)ncc3O1)C2 [Example 10, 1″-(Isopropyloxycarbonyl)-5-(1-methanesulfonyl-1,2,3,6-tetrahydro-pyridin-4-yl)-dispiro[2,3-dihydrofuro[2,3-c]pyridine-2,1′-cyclobutane-3′,4″-piperidine]]"
2,362 nM,"CS(=O)(=O)c1ccc(-c2cc3c(cn2)OC2(C3)CC3(CCN(CC4(C(F)(F)F)CC4)CC3)C2)cc1 [Example 5, 5-(4-Methylsulfonyl-phenyl)-1″-[(1-trifluoromethyl-cyclopropyl)-methyl]-dispiro[2,3-dihydrofuro[2,3-c]pyridine-2,1′-cyclobutane-3′,4″-piperidine]]"
3,12 nM,"CC(C)c1noc(N2CCC3(CC2)CC2(Cc4cc(C5=CCN(S(C)(=O)=O)CC5)ncc4O2)C3)n1 [Example 23, 1″-(3-Isopropyl-[1,2,4]oxadiazol-5-yl)-5-(1-methanesulfonyl-1,2,3,6-tetrahydro-pyridin-4-yl)-dispiro[2,3-dihydrofuro[2,3-c]pyridine-2,1′-cyclobutane-3′,4″-piperidine]]"
4,11 nM,"CCc1cnc(N2CCC3(CC2)CC2(Cc4cc(C5=CCN(S(C)(=O)=O)CC5)ncc4O2)C3)nc1 [Example 28, 1″-(5-Ethyl-pyrimidin-2-yl)-5-(1-methanesulfonyl-1,2,3,6-tetrahydro-pyridin-4-yl)-dispiro[2,3-dihydrofuro[2,3-c]pyridine-2,1′-cyclobutane-3′,4″-piperidine]]"
5,9 nM,"CS(=O)(=O)N1CC=C(c2cc3c(cn2)OC2(C3)CC3(CCN(c4ncc(C5CC5)cn4)CC3)C2)CC1 [Example 17, 1″-(5-Cyclopropyl-pyrimidin-2-yl)-5-(1-methanesulfonyl-1,2,3,6-tetrahydro-pyridin-4-yl)-dispiro[2,3-dihydrofuro[2,3-c]pyridine-2,1′-cyclobutane-3′,4″-piperidine]]"
6,10 nM,"CS(=O)(=O)N1CC=C(c2cc3c(cn2)OC2(C3)CC3(CCN(c4nnc(C(F)(F)F)s4)CC3)C2)CC1 [Example 20, 5-(1-Methanesulfonyl-1,2,3,6-tetrahydro-pyridin-4-yl)-1″-(5-trifluoromethyl-[1,3,4]thiadiazol-2-yl)-dispiro[2,3-dihydrofuro[2,3-c]pyridine-2,1′-cyclobutane-3′,4″-piperidine]]"

row,SMILES,EC50
1,"CC1=C(c2cc3c(cn2)OC2(C3)CC3(CCN(C(=O)OC(C)(C)C)CC3)C2)CCN(S(C)(=O)=O)C1 [Example 8, 5-(1-Methanesulfonyl-5-methyl-1,2,3,6-tetrahydro-pyridin-4-yl)-1″-tert-butoxycarbonyl-dispiro[2,3-dihydrofuro[2,3-c]pyridine-2,1′-cyclobutane-3′,4″-piperidine]]",19 nM
2,"CSc1ccc(-c2cc3c(cn2)OC2(C3)CC3(CCN(C(=O)OC(C)(C)C)CC3)C2)c(C#N)c1 [Example 30, 5-(2-Cyano-4-methylsulfanyl-phenyl)-1″-tert-butoxycarbonyl-dispiro[2,3-dihydrofuro[2,3-c]pyridine-2,1′-cyclobutane-3′,4″-piperidine]]",14 nM
3,"CC(C)(C)OC(=O)N1CCC2(CC1)CC1(Cc3cc(-c4ccc(S(C)(=O)=O)nc4)ncc3O1)C2 [Example 13, 5-(6-Methanesulfonyl-pyridin-3-yl)-1″-tert-butoxycarbonyl-dispiro[2,3-dihydrofuro[2,3-c]pyridine-2,1′-cyclobutane-3′,4″-piperidine]]",42 nM
